Experimental data published in patent US8921376B2, “Pyrrolopyridines useful as inhibitors of protein kinase” (Vertex Pharmaceuticals Incorporated, priority 2005, dated 2014).

Columns and labels:
Assay type in all cases: biochemical
JAK3 = molecular target: T1, JAK3 (Homo sapiens, UniProt P52333); test: JAK3 inhibition assay (33P incorporation into poly(Glu)4Tyr)
T1 sequence (P52333 1-1124): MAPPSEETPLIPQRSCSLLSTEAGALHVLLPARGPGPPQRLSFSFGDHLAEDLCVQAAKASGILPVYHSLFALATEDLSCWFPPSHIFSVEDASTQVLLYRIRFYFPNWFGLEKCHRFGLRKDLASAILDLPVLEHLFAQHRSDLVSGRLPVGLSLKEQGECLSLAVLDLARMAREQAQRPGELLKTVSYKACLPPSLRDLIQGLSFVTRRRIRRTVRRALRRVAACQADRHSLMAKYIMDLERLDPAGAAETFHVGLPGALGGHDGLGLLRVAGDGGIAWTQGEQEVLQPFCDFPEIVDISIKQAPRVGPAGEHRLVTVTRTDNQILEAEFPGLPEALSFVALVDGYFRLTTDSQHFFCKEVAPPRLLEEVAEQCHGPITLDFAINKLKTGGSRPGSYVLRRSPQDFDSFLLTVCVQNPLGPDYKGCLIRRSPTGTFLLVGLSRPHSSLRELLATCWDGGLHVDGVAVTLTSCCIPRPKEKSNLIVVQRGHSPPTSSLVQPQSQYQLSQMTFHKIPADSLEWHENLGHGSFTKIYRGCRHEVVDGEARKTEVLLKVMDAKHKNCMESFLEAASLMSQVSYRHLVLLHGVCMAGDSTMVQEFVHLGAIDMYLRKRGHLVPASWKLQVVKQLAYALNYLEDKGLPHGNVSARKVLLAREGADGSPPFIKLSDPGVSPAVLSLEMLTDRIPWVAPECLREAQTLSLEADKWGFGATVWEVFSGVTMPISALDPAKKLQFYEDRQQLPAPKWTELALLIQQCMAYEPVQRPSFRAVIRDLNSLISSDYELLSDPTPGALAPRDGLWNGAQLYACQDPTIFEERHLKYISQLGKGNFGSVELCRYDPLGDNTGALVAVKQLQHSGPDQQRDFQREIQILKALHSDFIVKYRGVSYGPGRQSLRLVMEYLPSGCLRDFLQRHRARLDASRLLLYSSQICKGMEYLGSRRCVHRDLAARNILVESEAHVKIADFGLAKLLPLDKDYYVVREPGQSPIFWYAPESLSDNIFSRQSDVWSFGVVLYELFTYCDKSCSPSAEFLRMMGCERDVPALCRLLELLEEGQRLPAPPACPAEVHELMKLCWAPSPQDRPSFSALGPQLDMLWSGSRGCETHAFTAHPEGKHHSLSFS
Procedure: (§1) Compounds were screened for their ability to inhibit JAK using the assay shown below. Reactions were carried out in a kinase buffer containing 100 mM HEPES (pH 7.4), 1 mM DTT, 10 mM MgCl2, 25 mM NaCl, and 0.01% BSA.
(§2) Substrate concentrations in the assay were 5 μM ATP (200 μCi/μmole ATP) and 1 μM poly(Glu)4Tyr. Reactions were carried out at 25° C. and 1 nM JAK3.
(§3) To each well of a 96 well polycarbonate plate was added 1.5 μl of a candidate JAK3 inhibitor along with 50/1 of kinase buffer containing 2 μM poly(Glu)4Tyr and 10 μM ATP. This was then mixed and 50 μl of kinase buffer containing 2 nM JAK3 enzyme was added to start the reaction. After 20 minutes at room temperature (25 C), the reaction was stopped with 50 μl of 20% trichloroacetic acid (TCA) that also contained 0.4 mM ATP. The entire contents of each well were then transferred to a 96 well glass fiber filter plate using a TomTek Cell Harvester. After washing, 60 μl of scintillation fluid was added and ^33P incorporation detected on a Perkin Elmer TopCount.

ROCK I = ROCK I (Homo sapiens, UniProt Q13464); test: ROCK-I inhibition assay (radioactive enzyme assay, MBP substrate)
ROCK I, sequence (Q13464 whole entry): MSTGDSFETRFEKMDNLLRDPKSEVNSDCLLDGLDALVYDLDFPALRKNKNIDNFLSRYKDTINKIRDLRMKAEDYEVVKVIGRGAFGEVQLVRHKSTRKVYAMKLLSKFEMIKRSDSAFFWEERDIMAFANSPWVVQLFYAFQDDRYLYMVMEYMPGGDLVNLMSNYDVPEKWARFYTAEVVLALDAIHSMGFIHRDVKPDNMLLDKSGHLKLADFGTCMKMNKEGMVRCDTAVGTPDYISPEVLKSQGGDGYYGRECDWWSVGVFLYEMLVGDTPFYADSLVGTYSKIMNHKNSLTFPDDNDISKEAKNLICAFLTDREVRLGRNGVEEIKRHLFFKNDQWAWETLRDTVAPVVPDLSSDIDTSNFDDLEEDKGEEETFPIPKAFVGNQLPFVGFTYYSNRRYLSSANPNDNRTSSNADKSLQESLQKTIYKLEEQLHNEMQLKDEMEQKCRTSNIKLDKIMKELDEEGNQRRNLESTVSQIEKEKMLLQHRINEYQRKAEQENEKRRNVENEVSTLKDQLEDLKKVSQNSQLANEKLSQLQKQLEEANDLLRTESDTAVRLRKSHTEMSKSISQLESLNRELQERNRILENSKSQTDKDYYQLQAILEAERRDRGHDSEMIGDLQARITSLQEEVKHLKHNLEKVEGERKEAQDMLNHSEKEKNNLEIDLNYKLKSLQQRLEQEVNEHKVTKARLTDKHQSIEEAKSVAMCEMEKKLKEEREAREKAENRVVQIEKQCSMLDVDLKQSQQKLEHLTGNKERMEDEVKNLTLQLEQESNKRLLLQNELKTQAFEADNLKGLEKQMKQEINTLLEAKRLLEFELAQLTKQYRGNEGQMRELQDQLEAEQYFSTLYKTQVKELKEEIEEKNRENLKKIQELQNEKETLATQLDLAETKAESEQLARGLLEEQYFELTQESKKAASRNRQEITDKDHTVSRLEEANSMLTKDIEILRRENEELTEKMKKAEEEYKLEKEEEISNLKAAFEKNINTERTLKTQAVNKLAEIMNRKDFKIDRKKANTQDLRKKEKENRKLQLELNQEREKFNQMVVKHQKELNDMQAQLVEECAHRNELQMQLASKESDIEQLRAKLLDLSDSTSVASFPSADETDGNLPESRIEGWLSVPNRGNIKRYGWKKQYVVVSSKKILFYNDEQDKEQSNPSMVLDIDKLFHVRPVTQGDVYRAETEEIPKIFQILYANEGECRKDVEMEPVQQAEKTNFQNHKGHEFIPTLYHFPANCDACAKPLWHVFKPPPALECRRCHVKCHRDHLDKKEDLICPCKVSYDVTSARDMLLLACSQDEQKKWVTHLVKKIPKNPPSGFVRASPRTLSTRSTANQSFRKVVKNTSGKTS
Procedure: Compounds were screened for their ability to inhibit ROCK using a standard radioactive enzyme assay. Assays were carried out in a solution containing 100 mM HEPES (pH 7.5), 10 mM MgCl2, 25 mM NaCl, 2 mM DTT, and 1.5% DMSO. Final substrate concentrations in the assay were 13 μM [γ-^33P] ATP (25 mCi ^33P ATP/mmol ATP, Perkin Elmer, Cambridge, Mass./Sigma Chemicals, St Louis, Mo.) and 27 μM Myelin Basic Protein (MBP). Final enzyme concentration in the assay was 5 nM ROCK. Assays were carried out at room temperature. 1.5 μl of DMSO stock containing serial dilutions of the compound of the present invention (concentrations ranging from 10 μM to 2.6 nM) was placed in a 96 well plate. 50 μl of Solution 1 (100 mM HEPES (pH 7.5), 10 mM MgCl2, […]) was added to the plate. The reaction was initiated by addition of 50 μl of Solution 2 (100 mM HEPES (pH 7.5), 10 mM MgCl2, 4 mM DTT, […] and 10 nM ROCK). After 2 hours the reaction was quenched with 50 μL of 30% trichloroacetic acid (TCA, Fisher) containing 9 mM ATP. Transfer of 140 μL of the quenched reaction to a glass fiber filter plate (Corning, Cat. No. 3511) was followed by washing 3 times with 5% TCA. 50 μl of Optima Gold scintillation fluid (Perkin Elmer) was added and the plates were counted on a Top Count (Perkin Elmer). After removing mean background values for all of the data points the data was fit using Prism software to obtain a Ki(app).

JAK2 = JAK2 (Homo sapiens, UniProt O60674); test: JAK2 inhibition assay (as Example 3 with JAK-2 enzyme)
JAK2, sequence (O60674 whole entry): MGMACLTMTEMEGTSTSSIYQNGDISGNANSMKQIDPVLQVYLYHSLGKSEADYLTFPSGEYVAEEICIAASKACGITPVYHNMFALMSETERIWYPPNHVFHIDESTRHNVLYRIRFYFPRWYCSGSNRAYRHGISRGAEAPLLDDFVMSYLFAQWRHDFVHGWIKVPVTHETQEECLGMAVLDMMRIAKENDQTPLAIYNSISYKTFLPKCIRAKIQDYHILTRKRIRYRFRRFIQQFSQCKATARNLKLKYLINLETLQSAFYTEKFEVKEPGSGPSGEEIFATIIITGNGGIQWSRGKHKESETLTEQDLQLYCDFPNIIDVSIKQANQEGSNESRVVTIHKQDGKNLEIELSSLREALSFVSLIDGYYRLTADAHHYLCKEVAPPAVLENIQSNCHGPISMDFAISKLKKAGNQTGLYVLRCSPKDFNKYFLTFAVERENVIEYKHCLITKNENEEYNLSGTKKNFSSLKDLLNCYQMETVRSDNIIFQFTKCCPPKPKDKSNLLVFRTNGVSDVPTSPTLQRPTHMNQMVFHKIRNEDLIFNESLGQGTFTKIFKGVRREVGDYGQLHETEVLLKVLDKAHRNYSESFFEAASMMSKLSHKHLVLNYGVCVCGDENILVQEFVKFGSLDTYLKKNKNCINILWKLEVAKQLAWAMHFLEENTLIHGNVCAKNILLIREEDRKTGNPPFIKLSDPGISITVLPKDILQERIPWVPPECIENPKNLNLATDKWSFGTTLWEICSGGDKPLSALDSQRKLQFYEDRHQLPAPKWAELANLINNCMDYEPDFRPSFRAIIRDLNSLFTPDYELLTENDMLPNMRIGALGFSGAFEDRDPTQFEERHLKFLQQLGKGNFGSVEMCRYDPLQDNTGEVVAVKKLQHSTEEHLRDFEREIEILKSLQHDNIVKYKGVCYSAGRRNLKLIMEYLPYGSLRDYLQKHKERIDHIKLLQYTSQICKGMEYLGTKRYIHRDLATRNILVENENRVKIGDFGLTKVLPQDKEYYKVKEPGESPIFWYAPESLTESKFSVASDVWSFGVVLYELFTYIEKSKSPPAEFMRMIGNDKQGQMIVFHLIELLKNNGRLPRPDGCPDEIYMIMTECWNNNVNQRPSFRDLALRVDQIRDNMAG
Procedure: as §1, §2, §3
The assays were as described above in Example 3 except that JAK-2 enzyme was used, the final poly(Glu)4Tyr concentration was 15 μM, and final ATP concentration was 12 μM.

[1] = Table 6, enzyme inhibition data (Ki)
[2] = enzyme inhibition, Ki(app), Table 5

Ki (JAK3; [1]) [nM]	Ki (ROCK I; [1]) [nM]	Ki (JAK2; [1]) [nM]	Ki (JAK3; enzyme inhibition, Table 5) [nM]	Ki (ROCK I; [2]) [nM]	Ki (JAK2; enzyme inhibition, Table 5) [nM]	Structure (SMILES)
500 to 5000	500 to 5000	500 to 5000	–	–	–	CN(C)C1CCN(C(=O)c2cc(-c3ccnc4[nH]ccc34)c[nH]2)C1 (stereo not drawn) [compound 371]
–	–	–	< 500	< 500	–	COCCNC(=O)c1ccc(-c2ccnc3[nH]ccc23)s1 [compound 9]
< 500	< 500	< 500	–	–	–	O=C(c1cc(-c2ccnc3[nH]ccc23)c[nH]1)N1CCCC1C(F)(F)F (stereo not drawn) [compound 374]
–	–	–	500 to 5000	< 500	500 to 5000	CN(CCO)c1cccc(-c2ccnc3[nH]ccc23)n1 [compound 35, 2-(N-(6-(1H-Pyrrolo[2,3-b]pyridin-4-yl)pyridin-2-yl)-N-methylamino)ethanol]
–	–	–	< 500	< 500	< 500	N#CC1(c2cccc(-c3ccnc4[nH]ccc34)n2)CCCCC1 [compound 103, 1-(6-(1H-pyrrolo[2,3-b]pyridin-4-yl)pyridin-2-yl)cyclohexanecarbonitrile]
< 500	< 500	< 500	–	–	–	O=C(NCC(F)(F)F)c1ccc(-c2ccnc3[nH]ccc23)s1 [compound 260]
500 to 5000	500 to 5000	< 500	–	–	–	O=C(NC1CC1)c1ccc(-c2ccnc3[nH]ccc23)cc1 [compound 270]
–	–	–	500 to 5000	500 to 5000	500 to 5000	OC1CCN(c2cccc(-c3ccnc4[nH]ccc34)n2)C1 (stereo not drawn) [compound 51]
–	–	–	< 500	< 500	–	CCC(CC)NC(=O)c1ccc(-c2ccnc3[nH]ccc23)s1 [compound 17]
–	–	–	500 to 5000	–	500 to 5000	c1cc(NC2CCCC2)nc(-c2ccnc3[nH]ccc23)c1 [compound 24, N-Cyclopentyl-6-(1H-pyrrolo[2,3-b]pyridin-4-yl)pyridin-2-amine]
–	–	–	< 500	< 500	–	C[C@@H](CO)NC(=O)c1ccc(-c2ccnc3[nH]ccc23)s1 [compound 15]
–	–	–	< 500	< 500	–	CC(C)C(CO)NC(=O)c1ccc(-c2ccnc3[nH]ccc23)s1 (stereo not drawn) [compound 16]
–	–	–	< 500	< 500	–	COC[C@H]1CCCN1C(=O)c1ccc(-c2ccnc3[nH]ccc23)s1 [compound 13]
–	–	–	< 500	< 500	–	O=C(c1ccc(-c2ccnc3[nH]ccc23)s1)N1CCC[C@H]1CO [compound 10]
–	–	–	< 500	< 500	–	O=C(c1ccc(-c2ccnc3[nH]ccc23)s1)N1CCC[C@@H]1CO [compound 11]
–	–	–	< 500	< 500	–	O=C(c1ccc(-c2ccnc3[nH]ccc23)s1)N1CCNCC1 [compound 4]
–	–	–	< 500	< 500	–	O=C(NCCO)c1ccc(-c2ccnc3[nH]ccc23)s1 [compound 8]
–	–	–	< 500	< 500	–	CCCNC(=O)c1ccc(-c2ccnc3[nH]ccc23)s1 [compound 7]
–	–	–	500 to 5000	500 to 5000	–	COC[C@@H]1CCCN1C(=O)c1ccc(-c2ccnc3[nH]ccc23)s1 [compound 12]
–	–	–	< 500	< 500	–	O=C(NCC1CCCO1)c1ccc(-c2ccnc3[nH]ccc23)s1 (stereo not drawn) [compound 6]
–	–	–	< 500	< 500	–	CCC(CO)NC(=O)c1ccc(-c2ccnc3[nH]ccc23)s1 (racemic) [compound 14]

Continued, molecule first:

Structure (SMILES)	Ki (JAK3; [1]) [nM]	Ki (ROCK I; [1]) [nM]	Ki (JAK2; [1]) [nM]	Ki (JAK3; enzyme inhibition, Table 5) [nM]	Ki (ROCK I; [2]) [nM]	Ki (JAK2; enzyme inhibition, Table 5) [nM]
N#CCCN(CC1CC1)C(=O)c1cc(-c2c(F)cnc3[nH]ccc23)c[nH]1 [compound 398]	< 500	< 500	< 500	–	–	–
CCCCN(CC#N)C(=O)c1cc(-c2ccnc3[nH]ccc23)c[nH]1 [compound 300]	< 500	< 500	< 500	–	–	–
O=C(NCCC(F)(F)F)c1cccc(-c2ccnc3[nH]ccc23)c1 [compound 252]	< 500	500 to 5000	500 to 5000	–	–	–
CN(C)CCCN(C)C(=O)c1cc(-c2ccnc3[nH]ccc23)c[nH]1 [compound 365]	500 to 5000	< 500	500 to 5000	–	–	–
O=C(c1csc(-c2ccnc3[nH]ccc23)n1)N(CCC(F)(F)F)CC1CC1 [compound 402]	< 500	< 500	< 500	–	–	–
CCC(=O)N1CC[C@H](Nc2c(Cl)cnc3[nH]ccc23)C1 [compound 168]	500 to 5000	> 4000	< 500	–	–	–
CS(=O)(=O)N1CCCC(Nc2c(Cl)cnc3[nH]ccc23)C1 (stereo not drawn) [compound 182]	< 500	500 to 5000	< 500	–	–	–
Clc1cnc2[nH]ccc2c1NC1CCCN(Cc2ccccc2)C1 (stereo not drawn) [compound 157]	< 500	< 500	< 500	–	–	–
CCN(Cc1ccccn1)C(=O)c1cc(-c2c(Cl)cnc3[nH]ccc23)c[nH]1 [compound 333]	< 500	> 4000	< 500	–	–	–
CCCS(=O)(=O)N1CC[C@@H](Nc2c(Cl)cnc3[nH]ccc23)C1 [compound 180]	< 500	> 4000	< 500	–	–	–
Clc1cnc2[nH]ccc2c1-c1ccoc1 [compound 139]	< 500	500 to 5000	< 500	–	–	–
C=CCN(C(=O)c1csc(-c2ccnc3[nH]ccc23)n1)C1CCCC1 [compound 410]	< 500	< 500	< 500	–	–	–
O=C(O)c1cc(-c2c(Cl)cnc3[nH]ccc23)c[nH]1 [compound 81, 4-(5-Chloro-1H-pyrrolo[2,3b]pyridin-4-yl)-1H-pyrrole-2-carboxylic acid]	–	–	–	< 500	500 to 5000	< 500
Clc1ccccc1Nc1c(Cl)cnc2[nH]ccc12 [compound 158]	< 500	500 to 5000	< 500	–	–	–
CC(=O)N(Cc1ccccc1)c1cc(-c2ccnc3[nH]ccc23)cs1 [compound 21]	–	–	–	< 500	500 to 5000	–
COc1ccc(-c2ccnc3[nH]ccc23)cc1OC [compound 1, 4-(3,4-dimethoxyphenyl)-1H-pyrrolo[2,3-b]pyridine]	–	–	–	500 to 5000	–	–
COCC(=O)Nc1cc(-c2ccnc3[nH]ccc23)cs1 [compound 23]	–	–	–	500 to 5000	< 500	–
O=C(N[C@H](CO)c1cccc(Cl)c1)c1cc(-c2ccnc3[nH]ccc23)c[nH]1 [compound 2]	–	–	–	500 to 5000	–	–
CS(=O)(=O)Nc1cccc(CC(=O)Nc2cc(-c3ccnc4[nH]ccc34)cs2)c1 [compound 3]	–	–	–	< 500	< 500	–
